Paper PMC8767159, “Multiparameter Optimization of Trypanocidal Cruzain Inhibitors With In Vivo Activity and Favorable Pharmacokinetics” (Frontiers in Pharmacology, 2022)
Read-outs that look alike come from different tables or passages of the source.

Legend:
[1] = Cytotoxicity MTS assay in HFF-1 fibroblasts; type: cell-based; conditions: human HFF-1 fibroblasts
[2] = In vitro metabolic stability in human liver microsomes; type: in vitro ADME; conditions: human, liver microsomes
How it was run: (§1)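 Compounds incubated at 37°C with mouse or human liver microsomes (0.25 mg/ml) in potassium phosphate buffer with NADPH; samples quenched in ACN/MeOH at 0, 5, 10, 15, 20 and 30 min. Parent remaining by LC-MS/MS relative to 0 min; T½ = ln(2)/k, CLint = k*1000/0.25 (μL/min/mg).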

[3] = In vitro metabolic stability in mouse liver microsomes; type: in vitro ADME; conditions: mouse, liver microsomes
How it was run: as §1

[4] = In vivo pharmacokinetics in male CD1 mice; design: species or system mouse; conditions: for CLpu: plasma clearance corrected for the fraction unbound; for C0 / AUC / half-life / Vd / Cmax / Tmax / bioavailability: plasma; for clearance: plasma clearance, read-out: CLp (L/h/kg) IV (converted); for bioavailability: oral bioavailability
Procedure: The in vivo pharmacokinetic profiles of the compounds were determined using male CD1 mice weighing […] ([Davies and Morris, 1993]; [Liu and Jia, 2007]). The compounds were administered in a single dose orally (0.5 mg/kg) and intravenously (0.5 mg/kg). Stock solutions of the compounds in DMSO were diluted in Tween 80, PEG-400, and D5W (5% dextrose in water) at a ratio of 2:5:20:73 (v/v). The injection volume was 10 ml/kg. The remaining plasma concentration was monitored over time by LC-MS/MS by collecting blood samples (40 μl) at 10, 25, and 50 min and 1, 3, 6, 9, 12, and 24 h after administration of the compound.
For the biotransformation experiments and analysis of metabolites in microsomes, an Ultra-High-Pressure Liquid Chromatography instrument (UHPLC, Thermo Accela, Waltham, MA) ([Spaggiari et al., 2014]) connected to an automatic sample injector and a 1250 series pump was used. The UHPLC system was connected to a Thermo Fisher (Waltham, MA) LTQ Orbitrap mass spectrometer. For all other analyses, an AB Sciex Triple Quad 5500 coupled to a UHPLC equipped with a UV 1290 diode detector (Agilent Technologies, Santa Clara, CA) and a CTC PAL self-collecting system (LEAP Technologies, Carrboro, NC) was used. Q1 MS positive ion mode (300–500 Da) was used to detect the ions of the parent compounds. The UV detector was operated in spectral mode (250–280 nm). A Hypersil Gold C18 (2.1 mm × 100 mm, 1.9 µm, Thermo Fisher) HPLC column was used. The mobile phases were solvent A (0.1% formic acid in water) and solvent B (0.1% formic acid in ACN). The flow was adjusted to 0.55 ml/min, and the injection volume was adjusted to […]. The gradient started with 1% solvent B for 0.4 min, reached 40% (solvent B) in 2.3 min and 95% (solvent B) in 0.67 min, was maintained for 0.5 min, and returned to the initial condition of 1%. This condition was maintained for 1 min before injection of the next sample. The peak area ratio (peak area of the test compounds/peak area of the control compounds) was converted to the percentage of remaining compound, with the 0 min time point ratio set to 100%. T½ and CLint were calculated from the percentage of remaining compound versus the incubation time. From the resulting function, the slope (k) was determined. The equations T1/2 (min) = ln(2)/k and CLint in vitro (μL/min/mg) = k*1000/0.25 were used to determine T½ and CLint.

[5] = Table 5, CLint/fu, read-out: CLint_u (L/h/kg) human (converted)
[6] = Table 5, read-out: CLint (L/h/kg) human (converted)
[7] = Table 5, CLint/fu, read-out: CLint_u (L/h/kg) mouse (converted)
[8] = Table 5, read-out: CLint (L/h/kg) mouse (converted)
[9] = mouse, Table 6, IV 0.5 mg/kg, male CD1 mice
[10] = mouse, Table 6, IV 0.5 mg/kg, male CD1 mice, read-out: AUC (ng*h/ml) IV
[11] = mouse, Table 6, IV 0.5 mg/kg, male CD1 mice, read-out: T1/2 (h) IV (converted)
[12] = mouse, Table 6, IV 0.5 mg/kg, male CD1 mice, read-out: V SS (L/kg) IV
[13] = mouse, Table 6, PO 0.5 mg/kg, male CD1 mice
[14] = Table S5, CLint/fu, read-out: CLint_u (L/h/kg) Human (converted)
[15] = Table S5, read-out: CLint (L/h/kg) Human (converted)
[16] = Table S5, CLint/fu, read-out: CLint_u (L/h/kg) Mouse (converted)
[17] = Table S5, read-out: CLint (L/h/kg) Mouse (converted)
[18] = male, CD1, mouse, 0.5 mg/kg, Table S6, IV, mice
[19] = male, CD1, mouse, 0.5 mg/kg, Table S6, IV, mice, read-out: AUC (ng*h/mL) IV
[20] = male, CD1, mouse, 0.5 mg/kg, Table S6, IV, mice, read-out: T1/2(h) IV (converted)
[21] = male, CD1, mouse, 0.5 mg/kg, Table S6, IV, mice, read-out: VSS (L/kg) IV
[22] = male, CD1, mouse, 0.5 mg/kg, Table S6, PO, mice
[23] = male, CD1, mouse, 0.5 mg/kg, Table S6, PO, mice, read-out: AUC (ng*h/mL) PO
[24] = male, CD1, mouse, 0.5 mg/kg, Table S6, PO, mice, read-out: T1/2 (h) PO (converted)
[25] = male, CD1, mouse, 0.5 mg/kg, Table S6, mice

SMILES	IC50 at 72 h [1] [µM]	CLint scaled at 5 µM [2, 5] [L/h/kg]	CLint scaled at 5 µM [2, 6] [L/h/kg]	CLint scaled at 5 µM [3, 7] [L/h/kg]	CLint scaled at 5 µM [3, 8] [L/h/kg]	CLpu ([4]; Table 6, IV) [mL/min/kg]	C0 [4, 9] [ng/mL]	AUC [4, 10] [ng·h/mL]	half-life [4, 11] [h]	Vd [4, 12] [L/kg]	Cmax [4, 13] [ng/mL]	Tmax [4, 13] [min]	clearance [4, 9] [L/h/kg]	CLint scaled at 5 µM [2, 14] [L/h/kg]	CLint scaled at 5 µM [2, 15] [L/h/kg]	CLint scaled at 5 µM [3, 16] [L/h/kg]	CLint scaled at 5 µM [3, 17] [L/h/kg]	CLpu ([4]; Table S6) [mL/min/kg]	clearance [4, 18] [L/h/kg]	C0 [4, 18] [ng/mL]	further results
Cc1ccccc1OCC(=O)NCCc1nc2ccccc2o1 [Compound 37]	> 100	26.9	22.9	874	745	3118	169	53	0.2	2.4	14.6	18	9.5	–	–	–	–	–	–	–	–
O=C(COc1ccc(Br)cc1)NCCc1nc2ccccc2[nH]1 [Compound 33]	> 100	12.5	10.4	193	161	1010	658	160	0.2	0.6	71.7	18	9.5	–	–	–	–	–	–	–	bioavailability ([4]; mouse, 0.5 mg/kg, Table 6, male CD1 mice): 35.2%; AUC ([4]; mouse, Table 6, PO 0.5 mg/kg, male CD1 mice, read-out: AUC (ng*h/ml) PO): 56.5 ng·h/mL; half-life ([4]; mouse, Table 6, PO 0.5 mg/kg, male CD1 mice, read-out: T1/2 (h) PO (converted)): 0.4 h
O=C(COc1cccc([N+](=O)[O-])c1)NCCc1nc2ccccc2[nH]1 [Compound 8]	> 100	–	–	–	–	–	–	–	–	–	–	–	–	6.58	6.58	67.5	67.5	396.2	3.31	925	AUC [4, 19]: 322 ng·h/mL; half-life [4, 20]: 0.21 h; Vd [4, 21]: 1.04 L/kg; Cmax [4, 22]: 61 ng/mL; Tmax [4, 22]: 18.6 min; AUC [4, 23]: 44.6 ng·h/mL; half-life [4, 24]: 0.42 h; bioavailability [4, 25]: 14%
NC(=O)Cn1c(CCNC(=O)COc2ccccc2)nc2ccccc21 [Compound 28]	> 100	–	–	–	–	–	–	–	–	–	–	–	–	< 1.53	< 1.5	5.43	5.34	66.3	0.73	1930	AUC [4, 19]: 1420 ng·h/mL; half-life [4, 20]: 0.52 h; Vd [4, 21]: 0.43 L/kg; Cmax [4, 22]: 275 ng/mL; Tmax [4, 22]: 30.6 min; AUC [4, 23]: 499 ng·h/mL; half-life [4, 24]: 0.82 h; bioavailability [4, 25]: 35%
C=CCCn1c(CCNC(=O)COc2ccccc2Cl)nc2ccccc21 [Compound 38]	> 100	501	230	2030	934	7175	126	82	0.4	3.3	2.5	18	6.2	–	–	–	–	–	–	–	–
